Results from ChEMBL document CHEMBL5038592, “Discovery of MK-8153, a Potent and Selective ROMK Inhibitor and Novel Diuretic/Natriuretic” (J Med Chem, 2021).

How the values were obtained:
[1] = target: T1, Inward rectifier potassium channel 13 (Homo sapiens, UniProt O60928); assay: Inhibition of Kir7.1 (unknown origin)
T1 sequence (O60928 whole entry): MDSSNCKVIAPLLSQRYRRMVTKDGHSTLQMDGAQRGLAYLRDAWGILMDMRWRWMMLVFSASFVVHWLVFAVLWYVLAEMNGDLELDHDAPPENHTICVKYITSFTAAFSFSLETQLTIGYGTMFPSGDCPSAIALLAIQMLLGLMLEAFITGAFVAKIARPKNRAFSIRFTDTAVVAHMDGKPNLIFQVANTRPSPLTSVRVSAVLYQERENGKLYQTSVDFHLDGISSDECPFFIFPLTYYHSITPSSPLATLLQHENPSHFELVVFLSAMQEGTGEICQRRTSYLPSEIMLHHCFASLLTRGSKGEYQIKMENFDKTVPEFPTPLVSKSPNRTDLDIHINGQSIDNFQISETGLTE

[2] = Volume of distribution at steady state in Beagle dog at 2 mg/kg, po or 1 mg/kg, iv; type: ADME, organism-based, Canis lupus familiaris; conditions: in vivo, read-out: Vdss
[3] = target: T2, ATP-sensitive inward rectifier potassium channel 10 (Homo sapiens, UniProt P78508); assay: Inhibition of Kir4.1 (unknown origin)
T2 sequence (P78508 whole entry): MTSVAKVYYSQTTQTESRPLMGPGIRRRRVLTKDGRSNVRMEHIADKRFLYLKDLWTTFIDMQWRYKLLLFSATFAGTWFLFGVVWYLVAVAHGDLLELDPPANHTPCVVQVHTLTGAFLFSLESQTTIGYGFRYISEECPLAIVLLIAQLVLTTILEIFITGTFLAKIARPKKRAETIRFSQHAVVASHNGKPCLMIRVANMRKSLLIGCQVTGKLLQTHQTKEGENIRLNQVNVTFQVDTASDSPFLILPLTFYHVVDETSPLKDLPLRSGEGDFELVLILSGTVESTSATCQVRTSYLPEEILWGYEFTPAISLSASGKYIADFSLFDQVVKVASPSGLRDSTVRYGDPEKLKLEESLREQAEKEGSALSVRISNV

[4] = target: T3, ATP-sensitive inward rectifier potassium channel 1 (Rattus norvegicus, UniProt P35560); assay: Inhibition of rat Kir1.1 expressed in HEK293 cells by electrophysiology assay; type: cell-based
T3 sequence (P35560 whole entry): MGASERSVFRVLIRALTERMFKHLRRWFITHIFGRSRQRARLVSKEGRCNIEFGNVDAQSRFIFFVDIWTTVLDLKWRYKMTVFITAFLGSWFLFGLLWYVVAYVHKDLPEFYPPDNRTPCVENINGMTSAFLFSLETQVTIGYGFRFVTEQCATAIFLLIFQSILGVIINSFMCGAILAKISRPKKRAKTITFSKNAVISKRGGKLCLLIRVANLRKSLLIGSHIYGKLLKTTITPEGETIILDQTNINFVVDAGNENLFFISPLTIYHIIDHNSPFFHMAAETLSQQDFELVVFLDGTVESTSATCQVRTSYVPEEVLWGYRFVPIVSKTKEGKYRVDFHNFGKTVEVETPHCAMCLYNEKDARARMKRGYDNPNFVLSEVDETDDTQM

Cytochrome P450 2C8 = target: T4, Cytochrome P450 2C8 (Homo sapiens, UniProt P10632); assay: Inhibition of CYP2C8 (unknown origin)
T4 sequence (P10632 whole entry): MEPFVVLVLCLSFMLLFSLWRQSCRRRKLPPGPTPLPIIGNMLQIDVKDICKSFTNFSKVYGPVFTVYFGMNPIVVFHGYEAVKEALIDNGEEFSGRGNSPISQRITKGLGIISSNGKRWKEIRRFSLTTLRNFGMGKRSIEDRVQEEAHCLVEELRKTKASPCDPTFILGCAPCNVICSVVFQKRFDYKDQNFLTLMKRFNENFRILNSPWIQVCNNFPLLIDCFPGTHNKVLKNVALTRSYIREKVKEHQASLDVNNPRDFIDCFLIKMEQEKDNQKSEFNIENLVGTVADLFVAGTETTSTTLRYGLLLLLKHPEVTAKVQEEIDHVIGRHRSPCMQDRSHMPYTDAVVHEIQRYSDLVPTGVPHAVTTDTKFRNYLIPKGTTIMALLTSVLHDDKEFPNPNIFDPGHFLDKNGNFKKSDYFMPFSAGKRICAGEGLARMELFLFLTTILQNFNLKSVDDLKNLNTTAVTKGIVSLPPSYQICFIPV

[5] = target: Sodium channel protein type 5 subunit alpha (Homo sapiens, UniProt Q14524); assay: Inhibition of Nav1.5 (unknown origin)
[6] = Toxicity in dog assessed as tolerance at 0.3 to 6 mg/kg treated for 7 days; type: organism-based, Canis lupus familiaris; conditions: in vivo, 168 h, dose 0.3-6 mg/kg, time 7 day
[7] = Clearance in Beagle dog at 2 mg/kg, po or 1 mg/kg, iv; type: ADME, organism-based, Canis lupus familiaris; conditions: in vivo
[8] = Effective half life in Beagle dog at 2 mg/kg, po or 1 mg/kg, iv; type: ADME, organism-based, Canis lupus familiaris; conditions: in vivo, read-out: t1/2eff (converted)
[9] = Toxicity in rat assessed as histological changes at 5 to 300 mg/kg treated for 7 days; type: organism-based; conditions: in vivo, 168 h, dose 5-300 mg/kg, time 7 day
[10] = Drug metabolism in human hepatocytes assessed as metabolite formation by LC/MS analysis; type: ADME, cell-based, Hepatocyte
[11] = Effective half life in Wistar Han rat at 2 mg/kg, po or 1 mg/kg, iv; type: ADME, organism-based; conditions: in vivo, read-out: t1/2eff (converted)
[12] = Oral bioavailability in rhesus monkey at 2 mg/kg; type: ADME, organism-based, Macaca mulatta; conditions: in vivo
[13] = Drug metabolism in Wistar Han rat hepatocytes assessed as metabolite formation by LC/MS analysis; type: ADME, cell-based, Hepatocyte
[14] = Metabolic stability in Wistar Han rat hepatocytes by LC/MS analysis; type: ADME, cell-based, Hepatocyte
[15] = Clearance in rhesus monkey at 2 mg/kg, po or 1 mg/kg, iv; type: ADME, organism-based, Macaca mulatta; conditions: in vivo
[16] = Terminal half life in Wistar Han rat at 2 mg/kg, po or 1 mg/kg, iv; type: ADME, organism-based; conditions: in vivo, read-out: beta t1/2 (converted)
[17] = Drug excretion in bile-duct cannulated rat assessed as urinary excretion; type: ADME; conditions: urine, read-out: Drug excretion
[18] = Metabolic stability in Wistar Han rat liver microsomes by LC/MS analysis; type: ADME, Microsome
[19] = Drug metabolism in Beagle dog hepatocytes assessed as metabolite formation by LC/MS analysis; type: ADME, cell-based, Canis lupus familiaris, Hepatocyte
[20] = Clearance in Wistar Han rat at 2 mg/kg, po or 1 mg/kg, iv; type: ADME, organism-based; conditions: in vivo
[21] = Oral bioavailability in Wistar Han rat at 2 mg/kg; type: ADME, organism-based; conditions: in vivo
[22] = Volume of distribution at steady state in rhesus monkey at 2 mg/kg, po or 1 mg/kg, iv; type: ADME, organism-based, Macaca mulatta; conditions: in vivo, read-out: Vdss
[23] = Inhibition of Kir2.1 (unknown origin); parameters: species or system Homo sapiens
[24] = Terminal half life in rhesus monkey at 2 mg/kg, po or 1 mg/kg, iv; type: ADME, organism-based, Macaca mulatta; conditions: in vivo, read-out: beta t1/2 (converted)
Rattus norvegicus = assay: Antihypertensive activity in spontaneous hypertensive rat model assessed as decrease in systolic blood pressure at 3 mg/kg, po QD observed for 3 days; type: functional, organism-based; conditions: time 3.0 day
[25] = AUC (0 to infinity) in Wistar Han rat at 2 mg/kg, po or 1 mg/kg, iv; type: ADME, organism-based; parameters: dose 2 mg/kg; conditions: in vivo

Chain of Sodium channel protein type 5 subunit alpha (Q14524 whole entry): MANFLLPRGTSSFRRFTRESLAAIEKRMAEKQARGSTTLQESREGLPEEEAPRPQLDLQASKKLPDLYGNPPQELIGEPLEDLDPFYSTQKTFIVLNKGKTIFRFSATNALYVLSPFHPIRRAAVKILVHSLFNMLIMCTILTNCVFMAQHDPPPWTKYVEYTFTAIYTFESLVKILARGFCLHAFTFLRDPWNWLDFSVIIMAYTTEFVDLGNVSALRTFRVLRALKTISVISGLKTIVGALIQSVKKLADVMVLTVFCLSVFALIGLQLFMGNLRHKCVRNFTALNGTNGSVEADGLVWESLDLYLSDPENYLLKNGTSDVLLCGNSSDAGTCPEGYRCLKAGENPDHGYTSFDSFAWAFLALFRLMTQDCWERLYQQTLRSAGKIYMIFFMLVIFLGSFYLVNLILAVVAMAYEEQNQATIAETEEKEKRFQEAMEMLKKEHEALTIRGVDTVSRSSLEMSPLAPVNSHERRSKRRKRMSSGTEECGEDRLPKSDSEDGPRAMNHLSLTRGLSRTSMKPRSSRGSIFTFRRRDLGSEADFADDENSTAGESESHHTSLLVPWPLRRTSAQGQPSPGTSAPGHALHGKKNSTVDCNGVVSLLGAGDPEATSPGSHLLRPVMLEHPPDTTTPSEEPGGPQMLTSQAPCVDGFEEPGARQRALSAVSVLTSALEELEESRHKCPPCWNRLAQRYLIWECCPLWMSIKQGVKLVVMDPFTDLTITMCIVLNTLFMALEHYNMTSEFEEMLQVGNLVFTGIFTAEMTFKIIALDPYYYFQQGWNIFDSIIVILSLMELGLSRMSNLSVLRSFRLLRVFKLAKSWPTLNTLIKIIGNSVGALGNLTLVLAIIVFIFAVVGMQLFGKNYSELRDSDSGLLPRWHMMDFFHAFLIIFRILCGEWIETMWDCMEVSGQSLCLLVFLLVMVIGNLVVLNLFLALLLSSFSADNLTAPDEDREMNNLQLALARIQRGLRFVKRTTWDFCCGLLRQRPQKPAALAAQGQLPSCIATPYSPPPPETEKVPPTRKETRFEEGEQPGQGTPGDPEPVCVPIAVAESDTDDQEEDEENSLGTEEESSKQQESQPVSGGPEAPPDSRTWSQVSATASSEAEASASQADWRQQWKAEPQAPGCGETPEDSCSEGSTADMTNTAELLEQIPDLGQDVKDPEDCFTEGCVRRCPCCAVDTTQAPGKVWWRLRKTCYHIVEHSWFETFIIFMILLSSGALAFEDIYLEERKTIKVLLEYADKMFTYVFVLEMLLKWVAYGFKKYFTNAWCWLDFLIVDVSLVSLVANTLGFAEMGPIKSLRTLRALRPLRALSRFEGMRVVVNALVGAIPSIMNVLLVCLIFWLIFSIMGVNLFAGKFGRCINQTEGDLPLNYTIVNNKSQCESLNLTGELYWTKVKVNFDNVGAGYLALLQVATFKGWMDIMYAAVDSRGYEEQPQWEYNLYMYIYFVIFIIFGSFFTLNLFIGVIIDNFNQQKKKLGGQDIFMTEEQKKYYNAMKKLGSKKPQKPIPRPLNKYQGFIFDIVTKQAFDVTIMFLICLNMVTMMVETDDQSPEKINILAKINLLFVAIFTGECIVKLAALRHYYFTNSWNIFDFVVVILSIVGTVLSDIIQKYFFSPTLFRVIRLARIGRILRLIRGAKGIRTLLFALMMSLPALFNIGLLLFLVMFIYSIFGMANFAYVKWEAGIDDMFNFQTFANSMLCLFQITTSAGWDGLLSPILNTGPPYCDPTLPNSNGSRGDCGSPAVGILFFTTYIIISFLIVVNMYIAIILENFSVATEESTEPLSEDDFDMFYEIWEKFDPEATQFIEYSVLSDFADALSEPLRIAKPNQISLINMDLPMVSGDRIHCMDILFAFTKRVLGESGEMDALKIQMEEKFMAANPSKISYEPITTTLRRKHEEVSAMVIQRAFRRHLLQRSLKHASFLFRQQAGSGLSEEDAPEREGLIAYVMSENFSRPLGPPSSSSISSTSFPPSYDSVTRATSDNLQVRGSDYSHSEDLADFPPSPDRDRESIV

IC50 [1]: > 100 µM
Vd [2]: 5.2 L/kg
IC50 [3]: > 100 µM
IC50 [4]: 0.0028 µM
IC50 (Cytochrome P450 2C8): > 50 µM
clearance [7]: 8.7 mL/min/kg
half-life [8]: 6.8 h
Drug metabolism [10]: Metabolite_Notdetected
half-life [11]: 1.8 h
bioavailability [12]: 3.4%
Drug metabolism [13]: Metabolite_Notdetected
Stability [14]: Stable
clearance [15]: 58.3 mL/min/kg
half-life [16]: 3.6 h
dose excreted [17]: 66%
Stability [18]: Stable
Drug metabolism [19]: Metabolite_Notdetected
clearance [20]: 29.4 mL/min/kg
bioavailability [21]: 53%
Vd [22]: 7.9 L/kg
IC50 [23]: > 100 µM
half-life [24]: 3.3 h
AUC(0-inf) [25]: 1.4 µM·h
Compound: CC1=C(N2CCC3(CCN(C[C@H](O)c4ccc5c(c4C)COC5=O)CC3)C2=O)COC1=O
IC50 [5]: > 30 µM
Activity [6]: Non-Toxic
Activity [9]: Non-Toxic
Activity (Rattus norvegicus): Dose-Dependent Effect
